Assay results as given in patent US11292807B2 (OCEANS LTD., priority 2015, dated 2022).

Tests used:
[1] = test system: SKOV3 (ovarian adenocarcinoma); test: CIMA assay, cell viability, SKOV3; settings: SKOV
Method: (§1) Stock solutions of the extracts were prepared in dimethylsulfoxide (DMSO) at 10 mg/mL and stored in 200 μl aliquots at −20° C. until analysis. This preparation ensured that the DMSO delivered to cells in culture never exceeded 1%.
(§2) Prepared extracts were assessed following chronic exposure conditions in which cells were seeded at 2×10^3 cells/well (96 well-plate) and incubated with test compounds for 72 h. Each compound was evaluated over a range of concentrations (0, 10, 25, 50 or 100 μg/ml). Cell proliferation was initially assessed using a standard colorimetric indicator of metabolic activity (CIMA) assay. In this assay, tetrazole reduction was evaluated as a measure of metabolic function that evaluates mitochondrial activity to determine the extent of cell proliferation within a culture. This assay is based on the reduction of yellow tetrazolium salt to purple formazan by mitochondrial reductases enzyme in viable cells, resulting in a color changed that confers a change in absorbance.

[2] = test system: THP-1 (acute monocytic leukemia); test: CIMA assay, cell viability, THP-1
[3] = CIMA assay, cell viability, CCD1079SK; settings: human, Average cell viability, CCD
[4] = test system: CCD1079SK (fibroblast, noncancerous but proliferating); test: CIMA assay, cell viability, CCD1079SK; settings: CCD
A549 (lung carcinoma) = test: CIMA assay (colorimetric indicator of metabolic activity), cell viability, A549; settings: for Average cell viability: unit assumed
Method: as §1, §2

[5] = 50 ug/mL, listed as 174-13-14-3
[6] = 100 ug/mL, listed as 169-14-15-4
[7] = 100 ug/mL, listed as 174-13-14-3
[8] = THP-1, 1 ug/mL, listed as 174-13-14-3
[9] = THP-1, 10 ug/mL, listed as 174-13-14-3
[10] = THP-1, 50 ug/mL, listed as 174-13-14-3
[11] = THP-1, 100 ug/mL, listed as 174-13-14-3
[12] = 10 ug/mL, listed as 174-13-14-3
[13] = A549, 1 ug/mL, listed as 174-13-14-3
[14] = A549, 10 ug/mL, listed as 169-14-15-4
[15] = A549, 10 ug/mL, listed as 174-13-14-3
[16] = A549, 50 ug/mL, listed as 169-14-15-4
[17] = A549, 50 ug/mL, listed as 174-13-14-3
[18] = A549, 100 ug/mL, listed as 169-14-15-4
[19] = A549, 100 ug/mL, listed as 174-13-14-3

CC/C=C\C/C=C\C/C=C\C/C=C\C/C=C\CCCC(=O)OCC(COC1OC(CO)C(O)C(O)C1O)OC(=O)CCCCCCCCCCCCCCC (stereo not shown) [Compound 2, MGDG C20:5/C16:0]
Fold change in viability AVG [1, 5]: 0.67
Fold change in viability AVG [1, 6]: 0.48
Fold change in viability AVG [1, 7]: 0.19
viability at 1 µg/mL ([2]; Homo sapiens, THP-1, read-out: Average cell viability, THP-1, 1 ug/mL): 102%
viability at 10 µg/mL ([2]; Homo sapiens, THP-1, read-out: Average cell viability, THP-1, 10 ug/mL): 101%
viability at 50 µg/mL ([2]; Homo sapiens, THP-1, read-out: Average cell viability, THP-1, 50 ug/mL): 27%
viability at 100 µg/mL ([2]; Homo sapiens, THP-1, read-out: Average cell viability, THP-1, 100 ug/mL): 17%
Fold change in viability AVG ([2]; THP-1, 1 ug/mL, listed as 169-14-15-4): 1.16
Average cell viability [2, 8]: 91%
Fold change in viability AVG [2, 8]: 1.03
Fold change in viability AVG ([2]; THP-1, 10 ug/mL, listed as 169-14-15-4): 1.14
Average cell viability [2, 9]: 88%
Fold change in viability AVG [2, 9]: 1.00
Fold change in viability AVG ([2]; THP-1, 50 ug/mL, listed as 169-14-15-4): 0.31
Average cell viability [2, 10]: 21%
Fold change in viability AVG [2, 10]: 0.24
Fold change in viability AVG ([2]; THP-1, 100 ug/mL, listed as 169-14-15-4): 0.19
Average cell viability [2, 11]: 21%
Fold change in viability AVG [2, 11]: 0.23
THP-1 AVG ([2]; THP-1, sample at 1 ug/mL, listed as 169-14-15-4): 1.16
THP-1 AVG ([2]; THP-1, sample at 1 ug/mL, listed as 174-13-14-3): 1.03
THP-1 AVG ([2]; THP-1, sample at 10 ug/mL, listed as 169-14-15-4): 1.14
THP-1 AVG ([2]; THP-1, sample at 10 ug/mL, listed as 174-13-14-3): 1.00
THP-1 AVG ([2]; THP-1, sample at 50 ug/mL, listed as 169-14-15-4): 0.31
THP-1 AVG ([2]; THP-1, sample at 50 ug/mL, listed as 174-13-14-3): 0.24
THP-1 AVG ([2]; THP-1, sample at 100 ug/mL, listed as 169-14-15-4): 0.19
THP-1 AVG ([2]; THP-1, sample at 100 ug/mL, listed as 174-13-14-3): 0.23
viability at 72 h, 1 ug/mL ([3]; CCD1079SK fibroblast cells (noncancerous, proliferating), 1 ug/mL): 107%
viability at 72 h, 10 ug/mL ([3]; CCD1079SK fibroblasts (noncancerous, proliferating), 10 ug/mL): 99%
viability at 72 h, 50 ug/mL ([3]; CCD1079SK fibroblasts (noncancerous, proliferating), 50 ug/mL): 32%
viability at 72 h, 100 ug/mL ([3]; CCD1079SK fibroblasts (noncancerous, proliferating), 100 ug/mL): 13%
Fold change in viability AVG ([4]; 1 ug/mL, listed as 169-14-15-4): 1.18
Average cell viability ([4]; 1 ug/mL, listed as 174-13-14-3): 101%
Fold change in viability AVG ([4]; 1 ug/mL, listed as 174-13-14-3): 1.11
Fold change in viability AVG ([4]; 10 ug/mL, listed as 169-14-15-4): 1.08
Average cell viability [4, 12]: 89%
Fold change in viability AVG [4, 12]: 0.98
Fold change in viability AVG ([4]; 50 ug/mL, listed as 169-14-15-4): 0.36
Average cell viability [4, 5]: 20%
Fold change in viability AVG [4, 5]: 0.22
Fold change in viability AVG [4, 6]: 0.14
Average cell viability [4, 7]: 14%
Fold change in viability AVG [4, 7]: 0.15
Fold change in viability AVG (A549 (lung carcinoma); A549, 1 ug/mL, listed as 169-14-15-4): 1.19
Fold change in viability AVG (A549 (lung carcinoma); [13]): 1.12
Average cell viability (A549 (lung carcinoma); [13]): 96%
Fold change in viability AVG (A549 (lung carcinoma); [14]): 1.14
Average cell viability (A549 (lung carcinoma); [14]): 98%
Fold change in viability AVG (A549 (lung carcinoma); [15]): 0.60
Average cell viability (A549 (lung carcinoma); [15]): 52%
Fold change in viability AVG (A549 (lung carcinoma); [16]): 0.98
Average cell viability (A549 (lung carcinoma); [16]): 84%
Fold change in viability AVG (A549 (lung carcinoma); [17]): 0.60
Average cell viability (A549 (lung carcinoma); [17]): 51%
Fold change in viability AVG (A549 (lung carcinoma); [18]): 0.74
Average cell viability (A549 (lung carcinoma); [18]): 64%
Fold change in viability AVG (A549 (lung carcinoma); [19]): 0.41
Average cell viability (A549 (lung carcinoma); [19]): 35%
A549 AVG (A549 (lung carcinoma); A549, sample at 1 ug/mL, listed as 169-14-15-4): 1.19
A549 AVG (A549 (lung carcinoma); A549, sample at 1 ug/mL, listed as 174-13-14-3): 1.12
A549 AVG (A549 (lung carcinoma); A549, sample at 10 ug/mL, listed as 169-14-15-4): 1.14
A549 AVG (A549 (lung carcinoma); A549, sample at 10 ug/mL, listed as 174-13-14-3): 0.60
A549 AVG (A549 (lung carcinoma); A549, sample at 50 ug/mL, listed as 169-14-15-4): 0.98
A549 AVG (A549 (lung carcinoma); A549, sample at 50 ug/mL, listed as 174-13-14-3): 0.60
A549 AVG (A549 (lung carcinoma); A549, sample at 100 ug/mL, listed as 169-14-15-4): 0.74
A549 AVG (A549 (lung carcinoma); A549, sample at 100 ug/mL, listed as 174-13-14-3): 0.41
viability at 1 µg/mL (A549 (lung carcinoma); Homo sapiens, A549, read-out: Average cell viability, A549, 1 ug/mL): 102%
